Measured values: the SangsterLogP compilation

experiment: method code G-GLC, from Larsen, B. R., Skejo-Andreasen, H., & Pérez, A. P. (1992). Octanol-water partition coefficients of 39 polychlorinated biphenyls in an Askarel mixture. Fresenius Envir. Bull. I (Supplementum), S13-18.

SMILES | logP
Clc1ccc(Cl)c(-c2c(Cl)c(Cl)cc(Cl)c2Cl)c1 | 6.45
Clc1cc(Cl)c(-c2c(Cl)ccc(Cl)c2Cl)c(Cl)c1Cl | 6.76
Clc1ccc(Cl)c(-c2cc(Cl)ccc2Cl)c1 | 5.81
Clc1ccc(-c2cccc(Cl)c2Cl)cc1 | 5.63
Clc1ccc(-c2ccc(Cl)c(Cl)c2Cl)cc1 | 5.95
Clc1ccc(-c2ccc(Cl)c(Cl)c2Cl)c(Cl)c1Cl | 6.62
Clc1ccc(Cl)c(-c2c(Cl)ccc(Cl)c2Cl)c1 | 6.08
Clc1cc(Cl)c(-c2cccc(Cl)c2Cl)cc1Cl | 6.28
Clc1ccc(Cl)c(-c2ccc(Cl)c(Cl)c2)c1 | 5.99
Clc1ccc(-c2c(Cl)ccc(Cl)c2Cl)cc1Cl | 6.22
